Entries after “also recorded” stand apart in the source; their conditions may differ. Where a SMILES comes first, the peptide text is derived from it. The star is where a group is joined. Cbz = O=C(OCc1ccccc1)*; CH2F = FC*
Tests used:
[1] = tested on: rat neonatal cardiomyocytes; assay: Hypoxia/serum-deprivation-induced cardiomyocyte apoptosis (cell death ELISA, DNA laddering); type: cell-based
Protocol: (§1) Cardiomyocytes (CM) were prepared from 1-2 day-old rats as described by Matsui et al. (Circulation 100:2373-9, 1999). All CM were incubated in RPMI-1640 containing 5% FBS and 10% horse serum. Neonatal CM grown in 60 mm dishes were infected with Ad.EGFP.β-gal (MOI 20), Ad.FADD-wt, or Ad.FADD-dn (MOI 20), for 24 hours prior to exposure to transient hypoxic conditions, lasting up to 24 hours. To expose CM to transient hypoxia conditions, CM media is changed to N2/CO2-saturated serum-free F10 and cells are placed in an airtight N2-saturated container at 37° C. for up to 24 hours. Hypoxia was confirmed by oxymetry measurements. To examine the role of FADD in inflammatory signaling, cultured neonatal rat CM were stimulated with TNF-α (50 ng/ml) for 4 hours. Nuclear and cytoplasmic extracts were prepared.
For determination of DNA laddering, cellular DNA is extracted with phenol:chloroform, treated with RNase, ^32P-labeled, and then visualized by electrophoresis in 1.8% agarose gel.
Histone-associated DNA fragments were quantified by cell death ELISA as described in the manufacturer's protocol. DNA fragmentation data were corrected for background and normalized to the result with normoxic cardiomyocytes.

caspase-8 = assay: Caspase-8 activity (colorimetric assay) in cardiomyocytes; type: cell-based, rat; conditions: listed as zIETD-fink
Protocol: as §1
(§2) Optionally, apoptosis may also be measured by the protein or gene expression, or alternatively, by the activity of surrogate markers of apoptosis including, for example, caspase activity. Caspase-3, -8, and -9 activity may be examined by using the caspase colorimetric assay kit from R&D Systems according to the manufacturer's protocol. Briefly, cells are scraped, collected, washed with cold PBS, and lysed in cold lysis buffer. […] Release of the pNA cleavage product is quantitated in a microplate reader (Bio-Rad) at a wavelength of 405 nm.

caspase-9 = assay: Caspase-9 activity (colorimetric assay) in cardiomyocytes; type: cell-based, rat; conditions: pretreatment or over-expression
Protocol: as §1, §2

NF-κB = assay: TNF-α-induced NF-κB activation in neonatal rat cardiomyocytes (p65 translocation, IκB-α phosphorylation, EMSA); type: cell-based; conditions: 50 μM
Protocol: as §1, with “prepared. […]” for “prepared.”
Cells were harvested and nuclear extracts prepared as above. […] Nuclear proteins and oligonucleotide were then separated with native PAGE and detected by autoradiography.
Proteins were separated by SDS-PAGE performed under reducing conditions on 7.5%, 10%, and 12% separation gels with a 4% stacking gel. […] After washing, membranes were incubated with horseradish peroxidase-conjugated secondary antibody and immunoreactive bands detected by chemiluminescence.

Compound: COC(=O)C[C@H](NC(=O)[C@H](C)NC(=O)[C@@H](NC(=O)OCc1ccccc1)C(C)C)C(=O)CF [zVAD-fmk] (Cbz-Val-Ala-Asp(OMe)-CH2F)
- hypoxia/SD-induced apoptosis (ELISA for histone-associated DNA fragmentation, DNA laddering) ([1]; concentrations ranging from 50 to 100 μM): inhibited

Compound: CC[C@H](C)[C@H](NC(=O)OCc1ccccc1)C(=O)N[C@@H](CCC(=O)OC)C(=O)N[C@H](C(=O)N[C@@H](CC(=O)OC)C(=O)CF)[C@@H](C)O [zIETD-fmk] (Cbz-IE(OMe)TD(OMe)-CH2F)
- CM apoptosis in response to hypoxia/SD ([1]; 4 h hypoxia/SD): completely inhibited
- hypoxia/SD-induced caspase-8 activation (caspase-8): completely inhibited; also recorded: effectively blocked
- hypoxia/SD-induced activation of caspase-9 (caspase-9): completely inhibited
- reversal of the FADD effect on NF-κB (NF-κB): failed to reverse
